Measurements from patent US9580465B2, “Tissue protective peptides and peptide analogs for preventing and treating diseases and disorders associated with tissue damage” (ARAIM PHARMACEUTICALS, INC., priority 2008, dated 2017).
Several values for one entry are separate records, joined by “and”; a condition that tells them apart may be missing. Equal entries are not always repeated. Entries after “also recorded” stand apart in the source; their conditions may differ. Square brackets hold non-standard residues; d marks the D form. Ends that are not written are not given here.

What was measured:
9 L gliosarcoma cells = test: 9 L gliosarcoma implantation model, delayed treatment; format: in vivo, CD Fisher rats; details: 25 nmole/kg i.p. daily starting two weeks after implantation, three weeks, FIG. 13, 14
Experimental: In accordance with the accordance with the protocol of Lampson et al. Cancer Res. 53:176-82:1993 described above, CD Fisher rats were implanted with 9 L gliosarcoma cells transfected with the LacZ gene by use of a Hamilton syringe. 100,000 cells in 10 microliters were injected into the right caudate.
ID with a short plasma half life, another receiving Peptide IW (pegylated form of Peptide IC) and the third group received saline. Peptides were given at a dose of 25 nmole/kg body weight. Three weeks later, the animals were sacrificed and serial 1 mm thick coronal sections cut through the brain and incubated with 5-bromo-4-chloro-3-indolyl-[beta]-D-galactopyranoside (Xgal). Tumor cells (containing the LacZ gene) metabolized Xgal into a dark blue stain, localizing the extent of tumor. High resolution digital images were obtained and the areas stained blue determined using planimetric methodology. Data is expressed as total area of tumor infiltration.

histamine = test: Histamine induced wheal formation, peptide given at time of challenge; format: in vivo, Sprague-Dawley rats; details: 30 μg/kg at time of histamine challenge
Experimental: Under isoflurane anesthesia, 12 Sprague-Dawley rats' abdomens were shaved and depilated. Each rat was then injected intravenously (via internal jugular) with a dilute solution of Evans Blue (30 mg/ml in saline, 1 ml/kg bw). After 5 minutes, 6 small doses of histamine (Histamine diphosphate, 20 microliters administered intradermally) in a rectangular pattern on each rat's abdomen. After fifteen minutes, when the wheal reaches its maximum size the wheal is photographed and the blister area was determined by digital planimetry. To test the efficacy of various peptides, the peptide of interest was administered to the rats intravenously shortly after the histamine injection.
Rats received either saline, Peptide IY (30 μg/kg), Peptide ID (30 μg/kg), or Peptide IW (30 μg/kg) at time of histamine challenge.
Rats received either saline, peptide JA (30 μg/kg), peptide IZ (30 μg/kg), peptide IW (30 μg/kg) or peptide ID (30 μg/kg) at time of histamine challenge.

[1] = system: middle cerebral artery occlusion; test: Middle cerebral artery occlusion model; format: in vivo, Sprague Dawley rats; details: after MCAO; 2 μg/kg bw i.v. upon reperfusion, then three injections at 2-hour intervals; FIG. 5
Experimental: Sprague Dawley rats (8 per group) are subjected to the following MCAO protocol Surgery was performed in accordance with the teachings of Brines et al, 2000, PNAS USA 97:10526-10531 (hereby incorporated by reference in its entirety. Briefly, the rats are anesthetized with chloral hydrate (400 mg/kg-bw, i.p.), the carotid arteries were visualized, and the right carotid was occluded by two sutures and severed. A burr hole adjacent and rostral to the right orbit allowed visualization of the middle cerebral artery (“MCA”), which was cauterized distal to the rhinal artery. To produce a penumbra (border zone) surrounding this fixed MCA lesion, the contralateral carotid artery was occluded for 1 hour by using […] provided by a fine forceps and then re-opened.
The rats were administered saline, Peptide ID as a single i.v. dose (2 μg/kg bw), or Peptide IX, […], SEQ ID NO: 301), a scrambled version of Peptide IC, SEQ ID NO: 281, as a single Lv. dose (2 μg/kg bw) upon reperfusion, followed by three additional injections at 2-hour intervals. For assessment of injury, rats are subjected to behavioral testing or the volume of the lesion is determined by tetrazolium staining of brain sections performed 24 hours post surgery in accordance with the previously noted protocol.
The volume of the lesion was then determined by tetrazolium staining of brain sections performed 24 hours post surgery.
Rats were also tested in a foot fault behavioral protocol. Rats were tested on an elevated stainless steel grid floor 30 cm×30 cm with grid size of 30 mm according to the protocol of Markgraf et al., 1992, Brain Research 575:238-246 (hereby incorporated by reference in its entirety). When placed on the grid, a rat would attempt to move around and occasionally place a foot, rather than on the grid, through a grid opening (“foot fault”). The number of foot faults was measured for a 1 minute period.
The number of foot faults is indicative of the cognitive impairment of the rats due to the MCAO, the fewer the number of foot faults the less cognitive impairment.

bilateral renal ischemia = test: Bilateral renal ischemia assay; format: in vivo, C57/BL6 mice
Experimental: Sixty male C57/BL6 mice (˜25 g; Charles River Laboratories) were anesthetized with ketamine (150 mg/kg) and xylazine (15 mg/kg) i.p. Each animal was placed on a homeothermic blanket set at 37° C., and after a mid-line laparotomy, the renal pedicles were clamped for 30 minutes using nontraumatic vascular clamps. Peptide ID was administered at the indicated dose via i.p. Injection at 1 minute, 6 hours, and 12 hours after reperfusion. In a single dose study, the mice received a control (PBS), 1 μg/kg of Peptide IG at 1 minute, 1 μg/kg of Peptide IG at 30 minutes, 1 μg/kg of Peptide ID at 6 hours, or 10 μg/kg of Peptide ID at 6 hours (12 mice per group). In a multiple dose study, the mice received either multiple doses of a control (PBS), 0.1 μg/kg of Peptide ID, 1 μg/kg of Peptide ID, or 10 μg/kg of Peptide ID at 1 minute, 6 hours and 12 hours into reperfusion.
Twenty-four hours later, mice were reanesthetized and blood was obtained by cardiac puncture. Plasma urea and creatine were used as indicators of renal dysfunction and aspartate aminotransferase was used as an indicator of renal injury. Data were analyzed using ANOVA followed by Dunnett's post hoc test comparison.

[2] = system: cisplatin-induced nephropathy; test: Cisplatin induced nephropathy; format: in vivo, rats; details: CDDT 2 mg/kg i.p. twice a week; peptide 0.4 μg/kg three times a week for 5 weeks; FIG. 10
Experimental: Cancer chemotherapeutic agents such as cisplatin (CDDT) are known to induce renal injury among other toxicities. The ability of Peptide IC to protect rats form cisplatin-induced nephropathy was evaluated by administering 2 mg/kg CDDT intraperitoneally, twice a week for 5 weeks. Peptide IC was simultaneously administered at a dose of 0.4 μg/kg, three times a week for 5 weeks. Renal function was evaluated by measuring the volume of urine production.

[3] = system: cisplatin induced neuropathy; test: Cisplatin induced peripheral neuropathy (hotplate latency); format: in vivo, rats; details: CDDT 2 mg/kg i.p. twice a week; peptide 0.4 μg/kg three times a week for 5 weeks; FIG. 11
Experimental: Also, CDDT is known to induce peripheral neuropathy, among other toxicities. Following the experimental design described above for renal function, the ability of Peptide IC to protect against peripheral neuropathy was also evaluated. 2 mg/kg CDDT was administered intraperitoneally, twice a week for 5 weeks. Peptide IC was simultaneously administered at a dose of 0.4 μg/kg, three times a week for 5 weeks. Neuropathy was evaluated by hotplate latency, the delay period between contact of the rat's foot to a warm surface, and the retraction of the foot.

pressure ulcer = test: Decubitus ulcer (pressure sore) assay; format: in vivo, Sprauge-Dawley rats; details: 30 μg/kg sc daily; compared with all groups; FIG. 20
Experimental: A decubitus ulcer (pressure sore) assay was performed on 24 adult Sprauge-Dawley rats in accordance with the disclosure of Pierce et al., Selective A2A adenosine receptor activation reduces skin pressure ulcer formation and inflammation, Am J Physiol Heart Circ Physiol 281:67-74, 2001. Briefly, a ferromagnetic steel plate was implanted under a dorsal region of the rats skin. A rectangular permanent magnet was applied to the area of the skin under which the plate was implanted in order to compress the skin between the plate and the magnet. This compression reduced the flow of blood to the skin causing ischemia. The rats were subjected to a cycle of ischemia-reperfusion (2 hours ischemia with a 0.5 hour reperfusion) for a 72-hour period. […] Daily the area of the wound on each rat was measured for a period of 12 days.

PEG-QEQLERALNSS (XEQLERALNSS; PEG; Peptide IW) [pegylated form of Peptide IC, extended half-life peptide]
tumor size (total area of tumor infiltration) (9 L gliosarcoma cells): marked reduction in tumor size; also recorded: exhibited the best outcomes; also recorded: reduction in size of the tumor equivalent to that achieved by immediate treatment with Peptide ID | tumor size (total area of tumor infiltration) (9 L gliosarcoma cells; listed as Peptide 1W): reduced the size of tumor | wheal area (lesion area) (histamine; FIG. 18): ~0.3 cm^2

GLpLSEARNQSEL [Peptide IY, reference compound]
anti-inflammatory activity (histamine; FIG. 18): did not exhibit anti-inflammatory activity | wheal area (lesion area) (histamine; FIG. 18): about 0.6 cm^2

LSEQARNQSEL [Peptide IX, scrambled version of Peptide IC; called Peptide JA in b476, reference compound]
number of foot faults in 1 minute period [1]: 20.1±2.1 foot faults | wheal area (lesion area) (histamine; FIG. 19): about 0.6 cm^2

GSWQRSLQDTE (Glucagon derived Peptide IH) [glucagon region]
creatinine, urea and aspartate aminotransferase (biochemical markers of renal dysfunction) (bilateral renal ischemia; multiple doses 1 μg/kg at 1 minute, 6 hours and 12 hours into reperfusion, FIG. 7): reduction in these biochemical markers of renal dysfunction | creatinine, urea and aspartate aminotransferase (biochemical markers of renal dysfunction) (bilateral renal ischemia; multiple doses 10 μg/kg at 1 minute, 6 hours and 12 hours into reperfusion, FIG. 7): reduction in these biochemical markers of renal dysfunction | creatinine, urea and aspartate aminotransferase (biochemical markers of renal dysfunction) (bilateral renal ischemia; single dose 1 μg/kg at 6 hours into reperfusion, 24 hrs of reperfusion, FIG. 6): reduction in these biochemical markers of renal dysfunction | creatinine, urea and aspartate aminotransferase (biochemical markers of renal dysfunction) (bilateral renal ischemia; single dose 10 μg/kg at 6 hours into reperfusion, 24 hrs of reperfusion, FIG. 6): reduction in these biochemical markers of renal dysfunction

QEQLERALNSS (Helix B amino acids derived Peptide IC) [exterior-presenting amino acids of helix B of EPO]
volume of urine production (renal function) [2]: protected against renal dysfunction due to CDDT; also recorded: substantially like that of the control (PBS) group | hotplate latency (time to withdraw paw) [3]: prevented the appearance of peripheral neuropathy; also recorded: substantially similar to the control group (PBS)

SSNLARELQEQ ([dS][dS][dN][dL][dA][dR][dE][dL][dQ][dE][dQ]; also: retro-inverso) [Peptide IZ, Retro Inverso Peptide IC]
wheal area (lesion area) (histamine; FIG. 19): ~0.4 cm^2 and 0.35 cm^2

NAIIKNAYKKG (Beta endorphin derived Peptide IG) [beta endorphin region]
wound (ulcer) size (area) (pressure ulcer): smallest wound size
